Literature values as cited in patent publication US8759098B2, “Method for cloning pluripotent stem cells” (Boston Biomedical Research Institute, Inc., priority 2009, dated 2014).

Test system: somatic cells
Settings: low oxygen conditions; Page et al. 2009; cited from earlier work

FGF2: fibroblast growth factor 2
expression of pluripotency inducing genes: increased
